The values that follow come from US8703825B2, “Compounds, use thereof as medicaments, and method of preparation thereof” (Universite de Lorraine, priority 2008, dated 2014).

The structures appear in SMILES notation. Converted amounts (≈) assume the structure as drawn. Like-named read-outs stand apart in the source and are kept apart here.

Common to all, as to type: cell-based
Data set [1] concerns Enterococcus faecalis ATCC 29212. The data set can be described thus: MIC by microdilution in liquid medium (CLSI / CA-SFM). The text has this:
(§1) According to the joint recommendations: • of the “Comite de l′Antibiogramme de la Société Française de Microbiologie” (Antibiogram Committee of the French Society of Microbiology) (CA-SFM) [CA-SFM. Communique 2007 (Edition of January 2007). http://www.sfm.asso.fr] and, • of the “Clinical and Laboratory Standards Institute” (CLSI, formerly “National Committee for Clinical Laboratory Standards” or NCCLS) [NCCLS. 2003. Methods for dilution antimicrobial susceptibility tests for bacteria that grow aerobically; approved standard M7-A6, 6th ed. National Committee for Clinical Laboratory Standards, Wayne, Pa., USA.], five reference bacterial strains were used for the study: Escherichia coli ATCC 25922, Pseudomonas aeruginosa ATCC 27853, Staphylococcus aureus ATCC 25923 & ATCC 29213 and Enterococcus faecalis ATCC 29212.
(§2) The bacteria are cultivated either on Mueller-Hinton agar (Difco, 225250), or in Mueller-Hinton broth (Difco, 275730), at 35° C. [Grare M, Mourer M, Fontanay S, Regnouf-de-Vains J B, Finance C, Duval R E. In vitro activity of para-guanidinoethylcalix[4]arene against susceptible and antibiotic-resistant Gram-negative and Gram-positive bacteria. J. Antimicrob Chemother. 2007; 60: 575-81].
(§3) The various molecules tested were prepared in the form of aqueous solution at 10^−2 mol/L. The solutions used for the biological tests are freshly prepared, and stored for a week at most, at 4° C. The solutions are filtered through a filter with pores of 0.22 μm (Millex®GP; 0.22 μm; Millipore; France) before each test.
(§4) Procedure for determining the Minimum Inhibitory Concentration (MIC)
(§5) The minimum inhibitory concentrations (MIC) were determined by the standardized method of microdilution in liquid medium (96-well microplate, U-shaped bottom, Greiner), in Mueller-Hinton broth, with a final inoculum of 10^5-10^6 CFU/mL, depending on the bacterial species, in accordance with the recommendations of the CLSI.
(§6) For the determination of MIC, bacterial suspensions are prepared from an isolated colony, taken from a Mueller-Hinton agar, taken up in 5 mL of Mueller-Hinton broth. After 24 h of growth, the bacterial suspensions are diluted in sterile distilled water in order to obtain an inoculum of 10^5-10^6 CFU/mL. The purity of the bacterial suspensions is tested by isolation on agar and Gram staining.
(§7) The results are the mean value of 4 independent experiments.
For orientation: In broth dilution the organism is exposed to a series of concentrations in liquid medium.

Data set [2] has as its system Escherichia coli ATCC 25922. Described as above. As to conditions: Escherichia coli.
Excerpt: as §1, §2, §3, §4, §5, §6, §7

Data set [3] has as its system Pseudomonas aeruginosa ATCC 27853. The description is as above.
Excerpt: as §1, §2, §3, §4, §5, §6, §7

The subject of data set [4] is Staphylococcus aureus ATCC 25923. Described as above. As to conditions: Staphylococcus aureus.
Excerpt: as §1, §2, §3, §4, §5, §6, §7

Data set [5] relates to Staphylococcus aureus ATCC 29213. The data set is described as above. As to conditions: for Selectivity index (SI=IC50/MIC): S. aureus ATCC 29213, HaCaT cell lines, 24 h exposure; for MIC: Staphylococcus aureus.
Excerpt: as §1, §2, §3, §4, §5, §6, §7

Data set [6] in a line: in vitro. The settings on record: human. The text has this: The eukaryotic cells used in our study are HaCaT cells (human keratinocytes), which were kindly supplied by the Pierre Fabre Institute (Toulouse, France); and MRC-5 cells (human embryonic fibroblasts), which were obtained from the company BioMérieux (Lyons, France). These cells are cultivated in DMEM (“Dulbecco's modified Eagle's medium”, Invitrogen 61965) for the HaCaT cells, and MEM (“modified Eagle's medium”, Invitrogen 41090); 10% of fetal calf serum (FCS, Invitrogen, 10270, Batch 40Q5150K) in a humid chamber at 37° C., under 5% CO2. The HaCaT and MRC-5 cells were seeded at 10^4 cells/well in 96-well plates (Sarstedt 831835). After 48 h of growth, the culture medium is withdrawn and replaced with the various “test” solutions (volume=100 μL). After contact time of 24, 48 and/or 168 H,the viability or cytotoxicity tests are carried out.
b) Cytotoxicity Tests (Neutral Red Test)
The cytotoxicity test is based on incorporation of a vital dye, Neutral Red, in the lysosomes of the viable cells, after exposure of the cells to different concentrations of the test molecules. The quantity of dye, after extraction from the lysosomes, is quantified by means of a spectrophotometer and compared with that obtained in the case of “control” cells, not exposed to the test molecules.
The test was carried out as described previously [Borenfreund E, Puerner J A. Toxicity determined in vitro by morphological alterations and neutral red absorption. Toxicol Lett 1985; 24: 119-24, and Grare M, Mourer M, Fontanay S, Regnouf-de-Vains J B, Finance C, Duval R E. In vitro activity of para-guanidinoethylcalix[4]arene against susceptible and antibiotic-resistant Gram-negative and Gram-positive bacteria. J Antimicrob Chemother. 2007; 60: 575-81].
After contact times of 24, 48 and/or 168 h with the different concentrations of the test molecules, the medium contained in each well is withdrawn and replaced with 200 μL of medium without phenol red (Invitrogen, 51200) containing 50 μg/mL of Neutral Red for an additional 3 h of incubation. The cells are then rinsed 3 times with PBS solution. After the last washing with PBS, 200 μL of a solution with 1% acetic acid/50% ethanol is added to each well to extract the dye from the lysosomes of the viable cells. The absorbance is measured at 540 nm, with a reference wavelength at 690 nm, by means of an ELISA plate reader (Multiskan E X, Thermo Electron Corporation, France). The results are the mean of the values obtained for 8 wells per concentration and per unit time. Each experiment was carried out 3 times.

Data set [7] relates to Enterococcus faecalis ATCC 29212. The experiment in a line: MIC by microdilution in liquid medium (CLSI / CA-SFM). As to conditions: E. faecalis ATCC 29212; HaCaT cell lines, 24 h exposure.
Where [8] appears, read: ATCC29212, E. faecalis ATCC 29212, reference strain, read-out: MIC.
The mark [9] stands for this setting: ATCC25922, E. coli ATCC 25922, reference strain, read-out: MIC.
[10] abbreviates: ATCC27853, P. aeruginosa ATCC 27853, reference strain, read-out: MIC.
[11] abbreviates: ATCC25923, S. aureus ATCC 25923, reference strain, read-out: MIC.
The mark [12] stands for this setting: ATCC29213, S. aureus ATCC 29213, reference strain, read-out: MIC.

One may read the MIC as the lowest concentration found to suppress growth. The term CC50 denotes the concentration giving 50% cytotoxicity. Read a high CC50 as lower toxicity to the cells. As for `[H]/N=C(\N/C(=N/[H])NCCCCCCNC(=N)NC(=N)Nc1ccc(Cl)cc1)Nc1ccc(Cl)cc1` [CHX, chlorhexidine], the minimal inhibitory concentration (MIC) in data set [1] (setting [8]) was found to be 2 µg/mL (≈ 3.96 µM); in data set [2] (setting [9]), 0.25 µg/mL (≈ 0.495 µM); in data set [3] (setting [10]), 8 µg/mL (≈ 15.8 µM); in data set [4] (setting [11]), 0.5 µg/mL (≈ 0.989 µM); in data set [5] (setting [12]), 0.5 µg/mL (≈ 0.989 µM). The “Selectivity index (SI=IC50/MIC)” value in data set [5] is 32-64; in data set [7], 8-16. Also, the CC50 at 24 h in data set [6] lay in the range of 8 to 16 µg/mL (≈ 15.8 to 31.7 µM).
Regarding `N=C(N)c1ccc(OCCCCCCOc2ccc(C(=N)N)cc2)cc1` [HX, hexamidine], the MIC was 2 µg/mL (≈ 5.64 µM) in data set [1] (ATCC29212); 8 µg/mL (≈ 22.6 µM) in data set [2] (ATCC25922); 32 µg/mL (≈ 90.3 µM) in data set [3] (ATCC27853); 4 µg/mL (≈ 11.3 µM) in data set [4] (ATCC25923); less than 1 µg/mL in data set [5] (ATCC29213). Moreover, the “Selectivity index (SI=IC50/MIC)” value was “≧32” in data set [5] and 16-32 in data set [7]. Moreover, in data set [6], the cytotoxic concentration (CC50) at 24 h lay in the range of 8 to 16 µg/mL (≈ 22.6 to 45.1 µM). In data set [6], the CC50 at 48 h fell in the range of 8 to 16 µg/mL (≈ 22.6 to 45.1 µM).
For the compound `N=C(N)NCCc1ccc(OCCCCCCOc2ccc(CCNC(=N)N)cc2)cc1` [compound 6, 1,6-bis(4-(2-guanidinoethyl)phenoxy)hexane], the MIC in data set [1] (setting [8]) amounted to 8 µg/mL (≈ 18.2 µM); in data set [2] (setting [9]) it was 4 µg/mL (≈ 9.08 µM); in data set [3] (setting [10]) it was 16 µg/mL (≈ 36.3 µM); in data set [4] (setting [11]) it was 0.5 µg/mL (≈ 1.13 µM); in data set [5] (setting [12]), 0.25 µg/mL (≈ 0.567 µM). For the same compound, the “Selectivity index (SI=IC50/MIC)” value was 16-32 in data set [5] and 0.5-1^ in data set [7]. Also, the CC50 at 24 h in data set [6] was in the range of 4 to 8 µg/mL (≈ 9.08 to 18.2 µM). In data set [6], the CC50 at 48 h is 2 to 4 µg/mL (≈ 4.54 to 9.08 µM). Further, the CC50 at 168 h in data set [6] was 1 to 2 µg/mL (≈ 2.27 to 4.54 µM).
